# Assay: In vitro plasma protein binding (ultrafiltration, Centrifree)
# Type: in vitro ADME
# Settings: 30 min at 37 °C, triplicate
# Description: PPB of MDPM was investigated based on published procedures with minor adjustments (Gampfer et al. [2020]), (Mardal et al. [2016]). A volume of 450 µL fresh human blood plasma was spiked with 50 µL of a 5 µM methanolic solution of MDPM. The mixture was incubated for 30 min at 37 °C. Plasma aliquots of 100 µL and 400 µL were transferred to a new reaction tube (global approach, GA) and onto two-chambered Centrifree devices from Merck (Darmstadt, Germany), respectively. The Centrifree devices were centrifuged for 40 min and 1600×g to obtain 100 µL of ultrafiltrate (UF). UF and GA were precipitated using 50 µL acetonitrile (− 20 °C). The mixture was vortexed, cooled for 30 min at − 20 °C, and centrifuged for 3 min at 18,407×g. […] Experiments were done in triplicate. Fraction unbound (fu) and PPB was determined by comparing the area ratios of MDPM and trimipramine-d3 in the UF and GA using the following equations:1 fu=peak area ratioMDPMUF/ISUF/peak area ratioMDPMGA/ISGA 2 PPB[%]=1-fu∗100
smiles,measurement,setting,value
"CC1NCCOC1c1ccc2c(c1)OCO2 (centres unmarked) [MDPM, 2-(1,3-benzodioxol-5-yl)-3-methylmorpholine]","fraction unbound at 30 min, 0.5 µM","fresh human blood plasma, read-out: plasma protein binding (PPB) (converted)",0.68
same,plasma protein binding (PPB),human plasma,32%

# Reference: publication PMC11968506, “Toxicokinetics and analytical toxicology of the phenmetrazine-derived new psychoactive substance 3,4-methylenedioxyphenmetrazine studied by means of in vitro systems” (Archives of Toxicology, 2025)
